Source: PubChem BioAssay AID449736 (Sanford-Burnham Center for Chemical Genomics, 2010)
pIC50: −log10 of the molar value.

Biological target: Tyrosine-protein phosphatase non-receptor type 7 (Homo sapiens) (UniProt P35236)
Test: inhibition of hematopoietic tyrosine phosphatase HePTP – biochemical, set 2, SAR follow-up (AID 449736)
Details: recombinant HePTP phosphatase activity

Sequence of Tyrosine-protein phosphatase non-receptor type 7 (Homo sapiens) (P35236 whole entry, looked up): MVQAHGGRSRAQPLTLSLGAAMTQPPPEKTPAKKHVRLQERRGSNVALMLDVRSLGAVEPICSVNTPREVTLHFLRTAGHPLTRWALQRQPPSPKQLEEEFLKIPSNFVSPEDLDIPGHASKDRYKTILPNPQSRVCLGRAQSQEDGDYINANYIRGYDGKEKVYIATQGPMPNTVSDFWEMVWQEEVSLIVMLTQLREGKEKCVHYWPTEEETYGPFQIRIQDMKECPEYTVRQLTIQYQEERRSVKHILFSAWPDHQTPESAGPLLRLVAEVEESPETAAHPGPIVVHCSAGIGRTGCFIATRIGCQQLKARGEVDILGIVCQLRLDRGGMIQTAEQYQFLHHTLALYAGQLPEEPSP

COc1cc(/C=C2\SC(=O)N(CC(=O)Nc3cccc(C)c3)C2=O)cc(Cl)c1OCC(=O)O
pIC50: 5.44
